Among the test systems are NCI/ADR-RES ovarian; SNB-75 CNS; OVCAR-3 ovarian; HCT-15 colon; HOP-62 NSCLC; M14 melanoma; HCT-116 colon; UO-31 renal; SK-MEL-28 melanoma; 786-0 renal.
Holding throughout (assay): NCI-60 cell line screen, 48 h

“And” between values parts separate entries of the source, which are not always exact repeats. Equal entries are not always repeated.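 Exposure lasted 48 hours, with cells grown in 96-well plates and compounds tested at five concentrations. GI50 marks 50% less growth. TGI is the concentration that stops growth completely.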 Some results are limits rather than exact numbers.

For the compound `COc1ccc(C(=O)COc2cccc(/C=C3\CSc4ccc(C)cc4C3=O)c2)cc1`, the GI50 in the assay on NCI/ADR-RES ovarian is 3.89 µM; in the assay with SNB-75 CNS, 27900 nM; in the assay with OVCAR-3 ovarian it was 15.4 µM; with HCT-15 colon, 11.7 µM; with HOP-62 NSCLC it was 24.9 µM; in the assay on M14 melanoma, 23.6 µM. Besides, the GI50 in the assay on HCT-116 colon is 1.91 µM; with UO-31 renal it was 19900 nM; in the assay on SK-MEL-28 melanoma, 17.4 µM; in the assay on 786-0 renal, 38.5 µM. Besides, the TGI in the assay on NCI/ADR-RES ovarian was 18.7 µM; in the assay with SNB-75 CNS it was > 100 µM; in the assay with OVCAR-3 ovarian, 57.6 µM; in the assay with HCT-15 colon, > 100 µM; in the assay with HOP-62 NSCLC, > 100 µM; in the assay on M14 melanoma, > 100 µM. Moreover, the TGI is 5.71 µM with HCT-116 colon, > 100 µM in the assay with UO-31 renal, 45.5 µM with SK-MEL-28 melanoma and > 100 µM in the assay on 786-0 renal.
Take `COc1ccccc1S(=O)(=O)Nc1ccc2c(c1)CN(C)C(=O)N2`: the GI50 with NCI/ADR-RES ovarian is 29.5 µM and 33.3 µM; in the assay with SNB-75 CNS it was 266 nM and 481 nM; in the assay with OVCAR-3 ovarian, 4.71 µM; with HCT-15 colon, 3.79 µM and 3.32 µM; with HOP-62 NSCLC, 4.93 µM and 4.22 µM; in the assay on M14 melanoma it was 3.3 µM and 4.08 µM. For the same compound, the GI50 is 4.6 µM and 4.38 µM in the assay on HCT-116 colon; 1410 nM and 1050 nM with UO-31 renal; 5.62 µM and 7.41 µM with SK-MEL-28 melanoma; 7.79 µM and 8.82 µM in the assay on 786-0 renal. Moreover, the TGI in the assay on NCI/ADR-RES ovarian, in the assay with OVCAR-3 ovarian, with HCT-15 colon, with HOP-62 NSCLC, in the assay with M14 melanoma and in the assay with HCT-116 colon was > 100 µM each time. In addition, the TGI in the assay on UO-31 renal, with SK-MEL-28 melanoma and in the assay with 786-0 renal was > 100 µM each time.
Regarding `COc1ccc2c(c1)[n+](=O)c(C(=O)/C=C/c1cc(OC)c(OC)c(OC)c1)c(C)n2[O-]`, the GI50 in the assay on NCI/ADR-RES ovarian is 32.3 µM; in the assay on SNB-75 CNS, 12000 nM; with OVCAR-3 ovarian, 27.3 µM; with HCT-15 colon it was 29.1 µM; with HOP-62 NSCLC, 18.7 µM; in the assay on M14 melanoma it was 23.3 µM. In addition, the GI50 in the assay with HCT-116 colon is 16.9 µM; in the assay on UO-31 renal, 28000 nM; in the assay with SK-MEL-28 melanoma it was > 100 µM; with 786-0 renal, 12.8 µM. The TGI was > 100 µM in the assay with NCI/ADR-RES ovarian; 34.7 µM in the assay on SNB-75 CNS; > 100 µM in the assay on OVCAR-3 ovarian; > 100 µM with HCT-15 colon; 37.2 µM with HOP-62 NSCLC; > 100 µM in the assay on M14 melanoma. Besides, the TGI in the assay on HCT-116 colon is 65.5 µM; with UO-31 renal, 78.6 µM; in the assay on SK-MEL-28 melanoma, > 100 µM; with 786-0 renal, 30.7 µM.
As for `Cn1c(=S)c2[nH]c(SCCN3CCCC3)nc2n(C)c1=O`, the TGI in the assay on NCI/ADR-RES ovarian, with SNB-75 CNS, in the assay on OVCAR-3 ovarian, in the assay with HCT-15 colon, in the assay on HOP-62 NSCLC and in the assay on M14 melanoma was > 100 µM in each case. The TGI in the assay on HCT-116 colon, in the assay with UO-31 renal, in the assay with SK-MEL-28 melanoma and with 786-0 renal was > 100 µM throughout.
Turning to `COC1=Nc2ccccc2S(=O)(=O)C=C1`, the TGI in the assay with NCI/ADR-RES ovarian was 36.2 µM; in the assay with SNB-75 CNS, 17.5 µM; in the assay with OVCAR-3 ovarian it was 6.79 µM; with HCT-15 colon, 7.89 µM; with HOP-62 NSCLC, > 100 µM; in the assay on M14 melanoma, 21.4 µM. For the same compound, the TGI with HCT-116 colon was determined as 3.46 µM; with UO-31 renal it was 12.5 µM; with SK-MEL-28 melanoma, 19.9 µM; in the assay on 786-0 renal it was 10.1 µM.
As to `O=C(OCc1ccc2c(Cl)cc(Cl)c(O)c2n1)c1cc2ccccc2[nH]1`, the GI50 was 0.953 µM in the assay on NCI/ADR-RES ovarian; 583 nM in the assay on SNB-75 CNS; 0.198 µM in the assay on OVCAR-3 ovarian; 0.217 µM with HCT-15 colon; 1.63 µM in the assay with HOP-62 NSCLC; 0.279 µM in the assay on M14 melanoma. Moreover, the GI50 in the assay on HCT-116 colon was 0.174 µM; with UO-31 renal it was 164 nM; in the assay on SK-MEL-28 melanoma, 0.532 µM; in the assay with 786-0 renal, 0.275 µM. Also, the TGI amounted to 5.22 µM in the assay on NCI/ADR-RES ovarian; 1.97 µM in the assay with SNB-75 CNS; 0.398 µM in the assay on OVCAR-3 ovarian; 0.517 µM in the assay on HCT-15 colon; 3.81 µM in the assay on HOP-62 NSCLC; 0.898 µM in the assay on M14 melanoma. In addition, the TGI with HCT-116 colon was 0.372 µM; with UO-31 renal it was 0.331 µM; in the assay on SK-MEL-28 melanoma, 1.62 µM; in the assay on 786-0 renal, 0.833 µM.
`CN(CCCl)c1ccc(/C=C/C2=[N+](C)c3ccccc3C2(C)C)cc1`: the GI50 was 65.8 µM in the assay on NCI/ADR-RES ovarian; 1200 nM with SNB-75 CNS; 0.314 µM in the assay on OVCAR-3 ovarian; 6.3 µM in the assay with HCT-15 colon; 1.07 µM with HOP-62 NSCLC; 1.03 µM in the assay on M14 melanoma. Further, the GI50 was 0.307 µM in the assay with HCT-116 colon, 4390 nM in the assay with UO-31 renal, 0.685 µM with SK-MEL-28 melanoma and 3.9 µM with 786-0 renal. Moreover, the TGI with NCI/ADR-RES ovarian was > 100 µM; in the assay with SNB-75 CNS, 6.91 µM; in the assay with OVCAR-3 ovarian, 3.15 µM; in the assay on HCT-15 colon, 21.7 µM; in the assay on HOP-62 NSCLC it was 10.9 µM; in the assay on M14 melanoma it was 14.8 µM. In addition, the TGI in the assay on HCT-116 colon came to 12.2 µM; in the assay with UO-31 renal, 17.4 µM; in the assay on SK-MEL-28 melanoma, 15.6 µM; in the assay with 786-0 renal, 15.9 µM.
